Source: patent publication US9328138B2 (priority 2011, dated 2016)

Assays:
[1] = biological target: T1, HCV genotype 1b (BK) NS3 modified enzyme with a R155K mutation (Hepatitis C virus genotype 1b, UniProt P26663, R1181K); experiment: HCV NS3 protease time-resolved fluorescence (TRF) assay, genotype 1b R155K; format: biochemical; conditions: Ki 1b R155K
T1 construct: HCV genotype 1b (BK) NS3 modified enzyme
Summary of the method: (§1)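 IC50 values derive from 4-parameter fitting of TRF signal after a 6 h room-temperature cleavage of 25 nM peptide substrate by NS3/NS4A that had been pre-incubated 10 min with compound.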

[2] = biological target: HCV NS3 protease genotype 3a (3A-1) (Hepatitis C virus genotype 3a, UniProt Q81258); experiment: HCV NS3 protease time-resolved fluorescence (TRF) assay, genotype 3a; format: biochemical; conditions: Ki 3a
Summary of the method: as §1

[3] = genotype 1b (BK) NS3 R155K, single value

SMILES	Ki [1, 3]	Ki [2]	Ki ([1]; first of two values printed in the cell (not explained))	Ki ([1]; second of two values printed in the cell (not explained))
C=C[C@@H]1C[C@]1(NC(=O)[C@@H]1C[C@@H]2CN1C(=O)[C@H](C(C)(C)C)NC(=O)O[C@@H]1CCC[C@H]1CCCCCc1c(nc3ccccc3c1OCCCN(C)C)O2)C(=O)NS(=O)(=O)C1(COC)CC1 [Example 97, (3aR,7S,10S,12R,24aR)-7-tert-butyl-19-[3-(dimethyl-amino)propoxy]-N-[(1R,2S)-2-ethenyl-1-({[1-(methoxymethyl)cyclopropyl]sulfonyl}carbamoyl)cyclopropyl]-5,8-dioxo-1,2,3,3a,5,6,7,8,11,12,20,21,22,23, 24,24a-hexadecahydro-10H-9,12-methanocyclopenta[18,19] [1,10,3,6]dioxadiaza-cyclononadecino [11,12,-b]quinoline-10-carboxamide]	80 pM	73000 pM		
C=C[C@@H]1C[C@]1(NC(=O)[C@@H]1C[C@@H]2CN1C(=O)[C@H](C(C)(C)C)NC(=O)O[C@@H]1C[C@H]1CCCCCc1c(nc3ccccc3c1OC1C3COCC1CN(C(=O)OC(C)(C)C)C3)O2)C(=O)NS(=O)(=O)C1(C)CC1 (single isomer, unassigned) [Example 254]		47500 pM	116 pM	2300 pM
C=C[C@@H]1C[C@]1(NC(=O)[C@@H]1C[C@@H]2CN1C(=O)[C@H](C(C)(C)C)NC(=O)O[C@@H]1C[C@H]1CCCCCc1c(nc3ccccc3c1OCC1CN(C)CCN1C)O2)C(=O)NS(=O)(=O)C1(C)CC1 (stereo partly drawn) [Example 140, (1ar,5S,8S,10R,22aR)-5-tert-butyl-17-[(1,4-dimethylpiperazin-2-yl)methoxy]-N-[(1R,2S)-2-ethenyl-1-{[(1-methylcyclopropyl)sulfonyl]carbamoyl}cyclopropyl]-3,6-dioxo-1,1a,3,4,5,6,9,10,18,19,20,21,22,22a-tetradecahydro-8H-7,10-methanocyclopropa[18,19][1,10,3,6] dioxadiazacyclononadecino [11,12-b]quinoline-8-carboxamide]	260 pM	3000 pM		
C=C[C@@H]1C[C@]1(NC(=O)[C@@H]1C[C@@H]2CN1C(=O)[C@H](C1CCCC1)NC(=O)O[C@@H]1CCC[C@H]1CC/C=C/Cc1c(nc3ccccc3c1OCCN(C)C)O2)C(=O)NS(=O)(=O)C1CC1 [Example 82, (3aR,7S,10S,12R,21E,24aS)-7-cyclo pentyl-N-{(1R,2S)-1-[(cyclopropylsulfonyl)carbamoyl]-2-ethenylcyclopropyl}-19-[2-(dimethylamino)ethoxy]-5,8-dioxo-1,2,3,3a,5,6,7,8,11,12,20,23, 24,24a-tetradecahydro-10H-9,12-methanocyclopenta[18,19] [1,10,3,6]dioxadiazacyclononadecino [11,12-b]quinoline-10-carboxamide]	180 pM	2500 pM		
C=C[C@@H]1C[C@]1(NC(=O)[C@@H]1C[C@@H]2CN1C(=O)[C@H](C(C)(C)C)NC(=O)O[C@@H]1C[C@H]1CCCCCc1c(nc3ccccc3c1OCCCNC(C)COC)O2)C(=O)NS(=O)(=O)C1(C)CC1 (stereo partly drawn) [Example 179, (1aR,5S,8S,10R,22aR)-5-tert-butyl-N-[(1R,2S)-2-ethenyl-1-{[(1-methylcyclopropyl)sulfonyl]carbamoyl}cyclopropyl]-17-{3-[(1-methoxypropan-2-yl)amino]propoxy}-3,6-dioxo-1,1a,3,4,5,6,9,10,18,19,20,21,22,22a-tetradecahydro-8H-7,10-methanocyclopropa[18,19][1,10,3,6] dioxadiazacyclononadecino[11,12-b] quinoline-8-carboxamide]	34 pM	580 pM		
C=C[C@@H]1C[C@]1(NC(=O)[C@@H]1C[C@@H]2CN1C(=O)[C@H](C1CCCC1)NC(=O)O[C@@H]1CCC[C@H]1CC/C=C/Cc1c(nc3ccccc3c1OCC(=O)O)O2)C(=O)NS(=O)(=O)C1CC1 [Example 66, {[(3aR,7S,10S,12R,21E,24aS)-7-cyclopentyl-10-({(1R,2S)-1-[(cyclopropylsulfonyl)carbamoyl]-2-ethenylcyclopropyl}carbamoyl)-5,8-dioxo-1,2,3,3a,5,6,7,8,11,12,20,23,24,24a-tetradecahydro-10H-9,12-methanocyclopenta[18,19][1,10,3,6]dioxadiazacyclononadecino[11,12-b]quinolin-19-yl]oxy}acetic acid]	77 pM	25000 pM		
